The record followed here is US7709497B2, “Pyrazolo[3,4-b]pyridine compound, and its use as a PDE4 inhibitor” (Glaxo Group Limited, priority 2004, dated 2010).

SMILES strings stand for the structures.

Data set [1] has as its system Dinitrofluorobenzene (DNFB)-induced delayed type hypersensitivity (DTH) response in pigs. As to the kind of experiment: Pig model of atopic dermatitis: DNFB-induced DTH response, skin topical administration. In kind it is in vivo. The source says: The pig DTH (delayed type hypersensitivity) model of contact hypersensitivity utilizes the Th2-mediated inflammatory response in pig skin to mimic the pathology of atopic dermatitis in humans. The model measures the potential anti-inflammatory effect of compounds, topically-applied to the skin, on the acute DTH (delayed type hypersensitivity) response in castrated male Yorkshire pigs.
In general in the assay, pigs (domestic Yorkshire pigs, 15-18 kg at time of sensitization, castrated males) are first sensitized by topical application of ca. 10% (w/v) dinitrofluorobenzene (DNFB) dissolved in DMSO:acetone:olive oil (ca. 1:5:3) (ca. 40 mg DNFB, 400 microlitre solution total) to the ears (outer) and groin (inner). The pigs are then challenged 12 days later with ca. 0.6% (w/v) DNFB applied to randomized sites on the shaved back of the pigs (ca. 90 micrograms/site; sites are identified and numbered by grid made with marking pen).
On the day of challenge, the treatments are performed at about 2 hours prior to and about 6 hours after challenge (for DMSO/acetone solutions/suspensions, to maximize exposure to drug), or at about 30 minutes after and about 6 hours after challenge (for topical ointments or creams, representing a more clinically relevant treatment protocol).
One day (about 24 hrs) after challenge, and optionally again at ca. 48 hrs post challenge, test sites are visually evaluated for intensity and extent of erythema by measuring the diameter of the reaction at its widest point and assigning scores of 0 to 4 for each of erythema intensity and erythema extent. Induration (a measure of swelling) is also scored 0 to 4. Scores for erythema intensity, erythema extent and induration are assigned according to the following criteria: Intensity of Erythema: 0=normal, 1=minimal, barely visible, 2=mild, 3=moderate, 4=severe. Extent of Erythema (not raised): 0=no edema, 1=macules of pin head size, 2=lentil sized macules, 3=confluent macules, 4=diffuse over entire site. Induration (palpable): 0=normal, 1=nodules of pin head size, 2=doughy lentil sized nodules, 3=confluent firm nodules, 4=diffuse hard lesion. The summed visual score at ca. 24 hours includes the individual scores for erythema intensity, erythema extent, and induration; so the maximal summed score for each site would be 12. High summed scores can generally indicate a high inflammatory response. Visual scores are subject to some inaccuracy/error.
Differences in the summed score between adjacent control (placebo) and treatment sites on the grids are calculated. This difference value is then used to determine the percent inhibition compared to the summed score for the control (placebo) sites. The more negative the difference value, the greater the calculated inhibition. Percent inhibition of (percent inhibition compared to) the mean summed score can be calculated.
About 24 hours after challenge, treatment sites can optionally also be visually evaluated for lesion area.
The anti-inflammatory effect of the compound of formula (I) (“free base” form), applied topically to the skin, on the acute DTH response in castrated male Yorkshire pigs is compared to that of another PDE4 inhibitor cipamfylline (BRL-61063) and the topical immunomodulator pimecrolimus.
In the above assay, the compound of formula (I) is topically administered: either (A) at ca. 2.5% (w/v) concentration in a solution of ca. 10% DMSO/90% acetone (ca. 50 microliters or ca. 1.5 mg/site) at about 2 hours prior to and about 6 hours after the DNFB challenge; or (B) at ca. 0.5% (w/w) concentration in an ointment containing propylene glycol (PG)*(ca. 25 mg of formulation/site) at about 30 minutes after and about 6 hours after the DNFB challenge. […]

A short description of data set [2]: Systemic exposure after oral administration to rat(s). To be noted: about 1 mg/kg oral, free base, 10% DMSO and 90% PEG200/water (70:30), preliminary tests. In kind it is in vivo. The source says: Although the compound of formula (I) or salt thereof may be administered orally, oral administration is not presently thought to be a preferred route of administration.

Regarding `CCn1ncc2c(NC3CCN(C(N)=O)CC3)c(C(=O)NCc3ccc(C)c(C)c3)cnc21` [compound of formula (I), 4-{[1-(aminocarbonyl)-4-piperidinyl]amino}-N-[(3,4-dimethylphenyl)methyl]-1-ethyl-1H-pyrazolo[3,4-b]pyridine-5-carboxamide], the “inhibition of mean summed score (erythema intensity, erythema extent, induration)” value in data set [1] (ca. 0.5% (w/w) in PG ointment, vs placebo PG ointment, ca. 24 h after challenge, p<0.05 by ANOVA) was 13-14%. Besides, in data set [1] (ca. 2.5% (w/v) in DMSO/acetone solution, vs vehicle alone, ca. 24 h after challenge), the “reduction in mean summed score” value is listed as “about 21%”. Besides, the lesion area result in data set [1] (skin administration in DMSO/acetone or PG ointment, subject to some inaccuracy/error) was “decrease the lesion area”. The “systemic exposure after oral administration” value in data set [2] is “low systemic exposure”.
